This passage reports IC50 results from patent publication US7087768B2, “Fumagillol derivatives and preparing method thereof” (Equispharm Co., Ltd., priority 2001, dated 2006).

Values after ≈ are worked out from the molar mass of the structure shown.

The first assay deals with HUVECs (human umbilical vein endothelial cells). Description: Inhibitory effect of fumagillol derivative on HUVEC cell growth (colorimetry). Format: cell-based. The settings on record: Homo sapiens, HUVEC. The protocol:
Using the HUVECs (human umbilical vein endothelial), the effect of the fumagillol derivative of the present invention on cell growth was evaluated.
The HUVECs were added to M199 medium supplemented with 20% FBS (fetal bovine serum), 100 U/ml penicillin, 100 μg/ml streptomycin, 1.5 g/L sodium bicarbonate, 0.1 mg/ml endothelial cell growth supplement (Sigma) and 0.1 mg/ml heparin (Sigma), after which the cells were incubated in an incubator at 37° C. under 5% CO2. Cells were subcultured a maximum of 8 times before being discarded.
In order to evaluate inhibitory activity of the fumagillin derivative on growth of HUVECs, the inventive compound was dissolved in DMSO and its concentration was adjusted from 10 mM to 1 mM. Cells were aliquotted to 96 well plates at a density of 2×10^3 cells per well and incubated for about 12–24 hours to be properly attached to the plate. Thereafter, the medium was replaced with new medium. The cells were treated with the compound obtained from each of the above examples at various concentration ranges of from 10 μM to […], and cultured for 2–3 days, followed by removing 100 μl of the medium from each well.
Colorimetry was performed to determine the extent of cell growth. The cells on each plate was added with 20 μl of aqueous one solution and then incubated at 37° C. under 5% CO2 for 2 hours. Using a 96-well plate reader, absorption was measured at 490 nm.
As such, a conventional TNP-470 having angiogenesis inhibitory effect was used as a control.
Broadly, the IC50 is the midpoint of a concentration-inhibition curve. As to `CO[C@@H]1[C@H](OC(=O)CNCCBr)CC[C@]2(CO2)[C@H]1[C@@]1(C)OC1CC=C(C)C` (stereo partly drawn) [Ex. 61, 6-O-(2-bromoethylamino)acetyl fumagillol], the IC50 came out at 2800 ng/mL (≈ 6270 nM).

Staying with this assay, now noted: Homo sapiens, HUVEC, HUVEC growth, cultured 2–3 days with compound, absorption at 490 nm; read-out: IC50.
Regarding `COc1cc(NCC(=O)O[C@@H]2CC[C@]3(CO3)[C@@H]([C@@]3(C)OC3CC=C(C)C)[C@@H]2OC)cc(O)c1OC` (stereo partly drawn) [Ex. 27, 6-O-(3,4-dimethoxy-5-hydroxyaniline)acetyl fumagillol], the IC50 is 88 ng/mL (≈ 179 nM).

For `CO[C@@H]1[C@H](OC(=O)CNc2ccc(OC(C)=O)cc2)CC[C@]2(CO2)[C@H]1[C@@]1(C)OC1CC=C(C)C` (stereo partly drawn) [Ex. 33, 6-O-(4-acetoxyaniline)acetyl fumagillol], the 50% inhibitory concentration (IC50) was 109 ng/mL (≈ 230 nM).

Take `CO[C@@H]1[C@H](OC(=O)CNc2ccc([N+](=O)[O-])cc2)CC[C@]2(CO2)[C@H]1[C@@]1(C)OC1CC=C(C)C` (stereo partly drawn) [Ex. 24, 6-O-(4-nitroaniline)acetyl fumagillol]: the half-inhibitory concentration (IC50) stood at 181 ng/mL (≈ 393 nM).

`CCC(C)CNCC(=O)O[C@@H]1CC[C@]2(CO2)[C@@H]([C@@]2(C)OC2CC=C(C)C)[C@@H]1OC` (stereo partly drawn) [Ex. 46, 6-O-(2-methyl-butylamino)acetyl fumagillol]: the concentration for half-maximal inhibition (IC50) is 2600 ng/mL (≈ 6350 nM).

Turning to `C=CCOc1ccc(NCC(=O)O[C@@H]2CC[C@]3(CO3)[C@@H]([C@@]3(C)OC3CC=C(C)C)[C@@H]2OC)cc1` (stereo partly drawn) [Ex. 7, 6-O-(4-allyloxyaniline)acetyl fumagillol], the IC50 was 21 ng/mL (≈ 44.5 nM).

For `CO[C@@H]1[C@H](OC(=O)CNc2ccc(Cl)cc2)CC[C@]2(CO2)[C@H]1[C@@]1(C)O[C@@H]1CC=C(C)C` [Ex. 19, 6-O-(4-chloroaniline)acetyl fumagillol], the IC50 is 174 ng/mL (≈ 387 nM).

Regarding `COC(CNCC(=O)O[C@@H]1CC[C@]2(CO2)[C@@H]([C@@]2(C)OC2CC=C(C)C)[C@@H]1OC)OC` (stereo partly drawn) [Ex. 77, 6-O-(2,2-dimethoxyethylamino)acetyl fumagillol], the IC50 is 330 ng/mL (≈ 772 nM).

`COc1cc(C#N)c(NCC(=O)O[C@@H]2CC[C@]3(CO3)[C@@H]([C@@]3(C)OC3CC=C(C)C)[C@@H]2OC)cc1OC` (stereo partly drawn) [Ex. 6, 6-O-(3,4-dimethoxy-6-cyanoaniline)acetyl fumagillol]: the half-maximal inhibitory concentration (IC50) is 19 ng/mL (≈ 38 nM).

On to `CO[C@@H]1[C@H](OC(=O)CCl)CC[C@]2(CO2)[C@H]1[C@@]1(C)OC1CC=C(C)C` (stereo partly drawn) [Intermediate, 6-O-(chloro)acetyl fumagillol], for which the concentration for half-maximal inhibition (IC50) came out at 2000 ng/mL (≈ 5570 nM).

In the case of `CO[C@@H]1C(OC(=O)CNC2CC2)CC[C@](O)(CCl)[C@H]1C1(C)OC1CC=C(C)C` (stereo in doubt) [Ex. 78, 4-((cyclopropylamino)acetyl)oxy-2-(1,2-epoxy-1,5-dimethyl-4-hexenyl)-3-methoxy-1-chloromethyl-1-cyclohexanol], the concentration for half-maximal inhibition (IC50) is 0.014 ng/mL (≈ 0.0337 nM).

`CO[C@@H]1[C@H](OC(=O)CNC#CCl)CC[C@]2(CO2)[C@H]1[C@@]1(C)OC1CC=C(C)C` (stereo partly drawn) [Ex. 62, 6-O-(chloroethynylamino)acetyl fumagillol]: the IC50 worked out at 340 ng/mL (≈ 854 nM).

For `CO[C@@H]1[C@H](OC(=O)CNCC(C)=O)CC[C@]2(CO2)[C@H]1[C@@]1(C)OC1CC=C(C)C` (stereo partly drawn) [Ex. 71, 6-O-(2-oxo-propylamino)acetyl fumagillol], the concentration for half-maximal inhibition (IC50) was 260 ng/mL (≈ 657 nM).

In the case of `CO[C@@H]1[C@H](OC(=O)CNC(C)CN(C)C)CC[C@]2(CO2)[C@H]1[C@@]1(C)OC1CC=C(C)C` (stereo partly drawn) [Ex. 68, 6-O-(2-dimethylamino-1-methylethylamino)acetyl fumagillol], the IC50 was determined as 240 ng/mL (≈ 565 nM).

With `CO[C@@H]1[C@H](OC(=O)CNc2ccc(OCCO)cc2)CC[C@]2(CO2)[C@H]1[C@@]1(C)OC1CC=C(C)C` (stereo partly drawn) [Ex. 35, 6-O-(4-hydroxyethoxyaniline)acetyl fumagillol], the concentration for half-maximal inhibition (IC50) is 116 ng/mL (≈ 244 nM).

As to `COc1ccc(NCC(=O)O[C@@H]2CC[C@]3(CO3)[C@@H]([C@@]3(C)OC3CC=C(C)C)[C@@H]2OC)cc1CN(C)C` (stereo partly drawn) [Ex. 10, 6-O-(3-(dimethylaminomethyl)-4-methoxyaniline)acetyl fumagillol], the concentration for half-maximal inhibition (IC50) is 0.06 ng/mL (≈ 0.119 nM).

For `COc1c(C)cc(NCC(=O)O[C@@H]2CC[C@]3(CO3)[C@@H]([C@@]3(C)OC3CC=C(C)C)[C@@H]2OC)cc1C` (stereo partly drawn) [Ex. 15, 6-O-(3,5-dimethyl-4-methoxyaniline)acetyl fumagillol], the IC50 was determined as 0.06 ng/mL (≈ 0.127 nM).

With `CO[C@@H]1[C@H](OC(=O)CNC(C)CCC=C(C)C)CC[C@]2(CO2)[C@H]1[C@@]1(C)OC1CC=C(C)C` (stereo partly drawn) [Ex. 58, 6-O-(1,5-dimethyl-4-hexenylamino)acetyl fumagillol], the IC50 is 415 ng/mL (≈ 923 nM).

Regarding `CCOC(=O)CNCC(=O)O[C@@H]1CC[C@]2(CO2)[C@@H]([C@@]2(C)OC2CC=C(C)C)[C@@H]1OC` (stereo partly drawn) [Ex. 73, 6-O-(ethyl-2-aminoacetate)acetyl fumagillol], the IC50 was 1200 ng/mL (≈ 2820 nM).

For `CO[C@@H]1[C@H](OC(=O)CNC2CC2)CC[C@]2(CO2)[C@H]1[C@@]1(C)OC1CC=C(C)C` (stereo partly drawn) [Ex. 63, 6-O-(cyclopropylamino)acetyl fumagillol], the half-maximal inhibitory concentration (IC50) was 0.008 ng/mL (≈ 0.0211 nM).

Take `CO[C@@H]1C(OC(=O)CNC2CCC2)CC[C@](O)(CCl)[C@H]1C1(C)OC1CC=C(C)C` (stereo in doubt) [Ex. 79, 4-((cyclobutylamino)acetyl)oxy-2-(1,2-epoxy-1,5-dimethyl-4-hexenyl)-3-methoxy-1-chloromethyl-1-cyclohexanol]: the IC50 stood at 0.037 ng/mL (≈ 0.086 nM).

In the case of `CCC(C)NCC(=O)O[C@@H]1CC[C@]2(CO2)[C@@H]([C@@]2(C)OC2CC=C(C)C)[C@@H]1OC` (stereo partly drawn) [Ex. 45, 6-O-(sec-butylamino)acetyl fumagillol], the half-inhibitory concentration (IC50) is 370 ng/mL (≈ 935 nM).

With `COc1ccc(NCC(=O)O[C@@H]2CC[C@]3(CO3)[C@@H]([C@@]3(C)OC3CC=C(C)C)[C@@H]2OC)c(OC)c1` (stereo partly drawn) [Ex. 3, 6-O-(2,4-dimethoxyaniline)acetyl fumagillol], the half-inhibitory concentration (IC50) is 0.09 ng/mL (≈ 0.189 nM).

For `COc1ccc(NCC(=O)O[C@@H]2CC[C@]3(CO3)[C@@H]([C@@]3(C)OC3CC=C(C)C)[C@@H]2OC)cc1OC(C)C` (stereo partly drawn) [Ex. 12, 6-O-(3-isopropoxy-4-methoxyaniline)acetyl fumagillol], the IC50 is 0.07 ng/mL (≈ 0.139 nM).

For `CCCOc1ccc(NCC(=O)O[C@@H]2CC[C@]3(CO3)[C@@H]([C@@]3(C)OC3CC=C(C)C)[C@@H]2OC)cc1` (stereo partly drawn) [Ex. 17, 6-O-(4-propyloxyaniline)acetyl fumagillol], the IC50 came to 0.61 ng/mL (≈ 1.29 nM).

For the compound `CO[C@@H]1[C@H](OC(=O)CNc2ccc(C(F)(F)F)cc2)CC[C@]2(CO2)[C@H]1[C@@]1(C)OC1CC=C(C)C` (stereo partly drawn) [Ex. 32, 6-O-(4-trifluoromethylaniline)acetyl fumagillol], the IC50 amounted to 128 ng/mL (≈ 265 nM).

As to `COc1ccc(NCC(=O)O[C@@H]2CC[C@]3(CO3)[C@@H]([C@@]3(C)OC3CC=C(C)C)[C@@H]2OC)cc1C#N` (stereo partly drawn) [Ex. 9, 6-O-(3-cyano-4-methoxyaniline)acetyl fumagillol], the IC50 worked out at 0.63 ng/mL (≈ 1.34 nM).

As to `CO[C@@H]1[C@H](OC(=O)CNc2ccc(O)cc2)CC[C@]2(CO2)[C@H]1[C@@]1(C)OC1CC=C(C)C` (stereo partly drawn) [Ex. 21, 6-O-(4-hydroxyaniline)acetyl fumagillol], the IC50 was 185 ng/mL (≈ 429 nM).

The assay is the same for the next values; noted with them: Homo sapiens; HUVEC growth, cultured 2–3 days with compound, absorption at 490 nm; read-out: IC50.
As to `CO[C@@H]1[C@H](OC(=O)CNc2ccccc2)CC[C@]2(CO2)[C@H]1[C@@]1(C)OC1CC=C(C)C` (stereo partly drawn) [Ex. 18, 6-O-(aniline)acetyl fumagillol], the IC50 amounted to 17 ng/mL (≈ 40.9 nM).

Regarding `C=CCC(NCC(=O)O[C@@H]1CC[C@]2(CO2)[C@@H]([C@@]2(C)OC2CC=C(C)C)[C@@H]1OC)C(=O)OC` (stereo partly drawn) [Ex. 76, 6-O-(allylglycinemethylester)acetyl fumagillol], the IC50 turned out to be 1490 ng/mL (≈ 3300 nM).

With `COc1ccc(NCC(=O)O[C@@H]2CC[C@]3(CO3)[C@@H]([C@@]3(C)OC3CC=C(C)C)[C@@H]2OC)cc1OC` (stereo partly drawn) [Ex. 4, 6-O-(3,4-dimethoxyaniline)acetyl fumagillol], the IC50 worked out at 0.08 ng/mL (≈ 0.168 nM).

In the case of `CO[C@@H]1[C@H](OC(=O)CNc2ccc(N(C)C)cc2)CC[C@]2(CO2)[C@H]1[C@@]1(C)OC1CC=C(C)C` (stereo partly drawn) [Ex. 20, 6-O-(4-dimethylaminoaniline)acetyl fumagillol], the concentration for half-maximal inhibition (IC50) was determined as 162 ng/mL (≈ 353 nM).

In the case of `C=C(C)CNCC(=O)O[C@@H]1CC[C@]2(CO2)[C@@H]([C@@]2(C)OC2CC=C(C)C)[C@@H]1OC` (stereo partly drawn) [Ex. 56, 6-O-(2-methyl-allylamino)acetyl fumagillol], the IC50 is 28 ng/mL (≈ 71.2 nM).
